Tested on: sclerostin
Experiment: Irisin injection in mice: sclerostin mRNA in osteocyte-enriched bones and plasma sclerostin protein (ELISA)
Type: in vivo
Conditions: co-injection of 1 mg/kg inhibitor with irisin
Protocol: 8 weeks old mice were injected daily with indicated dose of irisin for 6 days. […] were collected and treated with collagenase to yield osteocyte-enriched bones. Sclerostin mRNA level from osteocyte-enriched tibia was analyzed by qPCR (FIG. 7A). Cyclophilin was used as a house-keeping gene. Plasma was collected to analyze the circulating sclerostin protein level by ELISA assay (FIG. 7B). Data are represented as mean±SEM. For FIG. 7A and FIG. 7B, n=5 animals/group. * indicates p<0.05, and *** indicates p<0.001.
Certain materials and methods were used to generate the results described herein. For example, the data shown in FIG. 1A resulted from MLO-Y4 (an osteocyte-like cell line) cells treated with the indicated concentration of irisin and hydrogen peroxide for 4 hours. Cells were stained with Hoechst 33342 (ThermoFisher Scientific, catalog number H3570) and Eth-D1 (ThermoFisher Scientific, catalog number E1169) and analyzed to determine the percentage of cell death using ImageJ. […] Co-precipitated irisin was analyzed by immunoblot analysis against flag tag (Sigma Aldrich, catalog number A8592). The data shown in FIGS. 5A and 5B were generated from MLO-Y4 cells treated and analyzed as in the experiments used to generate the data shown in FIG. 2D, except that pre-treatment of 100 nM RGDS (FIG. 5A) or echistatin (R & D Systems Inc., catalog number 3202/100U) (FIG. 5B) for 10 minutes was performed before irisin treatment. […] RNAs were extracted from the cells and the sclerostin mRNA level was analyzed by qPCR (FIG. 6A) or treated and analyzed as in (FIG. 6A), except that pre-treatment of 10 μM RGDS, RGDyK (Selleck, catalog number S7844), or echistatin was performed for 10 minutes before irisin treatment. […] Sclerostin mRNA level was analyzed by qPCR (FIG. 7A). […] Epididymal fats were collected, RNAs were extracted from the tissues, and mRNA levels of the indicated genes were analyzed by qPCR. […]

N=C(N)NCCC[C@@H]1NC(=O)[C@H](CCCCN)NC(=O)[C@@H](Cc2ccc(O)cc2)NC(=O)[C@H](CC(=O)O)NC(=O)CNC1=O [cyclo RGDyK]
effect on irisin-induced gene expression of sclerostin in osteocyte-enriched bones: prevented
effect on irisin-induced sclerostin protein level in plasma: prevented

— patent US20210063414A1, “METHODS FOR PREVENTING AND/OR TREATING BONE LOSS CONDITIONS BY MODULATING IRISIN” (Dana-Farber Cancer Institute, Inc., priority 2018, published 2021)
